In brackets after ≈: the same amount, converted by molar mass.
Assays:
Rhizoctonia solani = experiment: Antifungal activity against Rhizoctonia solani assessed as inhibition of fungal growth at 1 microg/ml relative to control; assay type: functional
[1] = test system: Human immunodeficiency virus 2; experiment: Antiviral activity against HIV-2 ROD infected in human MT-4 cells assessed as reduction in virus-induced cytopathic effect incubated for 5 days by spectrophotometric based MTT assay; assay type: functional, organism-based; details: Human immunodeficiency virus 2, ROD, MT4, 120 h
[2] = test system: Panel NCI-60 (60 carcinoma cell lines); experiment: Cytotoxicity against human Panel NCI-60 (60 carcinoma cell lines) assessed as reduction in cell growth incubated for 72 hrs by CCK-8 assay; assay type: functional, cell-based
HT-1080 [3] = experiment: Cytotoxicity against human HT-1080 cells assessed as reduction in cell growth by measuring lethal concentration for 72 hrs by MTT assay; assay type: functional
MG-22A [4] = experiment: Cytotoxicity against mouse MG-22A cells assessed as reduction in cell growth by measuring lethal concentration for 72 hrs by MTT assay; assay type: functional
[5] = target: Hydroxycarboxylic acid receptor 2 (Rattus norvegicus, UniProt Q80Z39); experiment: Agonist activity at rat GPR109A transfected in T-REX-CHO cells by cAMP assay; assay type: cell-based
Sequence of Hydroxycarboxylic acid receptor 2 (Q80Z39 whole entry): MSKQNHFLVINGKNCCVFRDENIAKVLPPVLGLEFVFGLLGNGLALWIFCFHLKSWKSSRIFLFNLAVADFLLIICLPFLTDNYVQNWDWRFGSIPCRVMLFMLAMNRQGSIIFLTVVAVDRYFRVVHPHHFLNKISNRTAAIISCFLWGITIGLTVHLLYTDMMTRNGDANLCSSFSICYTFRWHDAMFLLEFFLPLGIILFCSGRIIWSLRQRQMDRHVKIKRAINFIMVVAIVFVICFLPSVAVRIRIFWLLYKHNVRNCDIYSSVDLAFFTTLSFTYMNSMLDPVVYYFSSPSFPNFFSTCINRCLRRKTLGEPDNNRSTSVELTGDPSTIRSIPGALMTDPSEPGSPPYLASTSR

[6] = Agonist activity at rat GPR81 transfected in T-REX-CHO cells by cAMP assay; assay type: cell-based
MG-22A [7] = experiment: Cytotoxicity against mouse MG-22A cells assessed as reduction in cell growth measured for 72 hrs by crystal violet staining based analysis; assay type: functional
HT-1080 [8] = experiment: Cytotoxicity against human HT-1080 cells assessed as reduction in cell growth measured for 72 hrs by crystal violet staining based analysis; assay type: functional; details: HT-1080, 72 h
Bacillus subtilis = experiment: Antibacterial activity against Bacillus subtilis assessed as reduction in bacterial growth incubated for 12 hrs by broth micr-dilution method; assay type: functional
Vibrio cholerae = experiment: Antibacterial activity against Vibrio cholerae assessed as inhibition of bacterial growth; assay type: functional
Escherichia coli [9] = experiment: Antibacterial activity against Escherichia coli assessed as reduction in bacterial growth incubated for 12 hrs by broth micr-dilution method; assay type: functional
Staphylococcus aureus [10] = experiment: Antibacterial activity against Staphylococcus aureus assessed as reduction in bacterial growth incubated for 12 hrs by broth micr-dilution method; assay type: functional
HCT-116 = experiment: Antiproliferative activity against human HCT-116 cells assessed as reduction in cell viability incubated for 72 hrs by MTT assay; assay type: functional, cell-based; details: HCT-116, 72 h
[11] = target: Sigma non-opioid intracellular receptor 1 (Cavia porcellus, UniProt Q60492); experiment: Binding affinity to guinea pig sigma 1 receptor assessed as inhibition constant
Sequence of Sigma non-opioid intracellular receptor 1 (Q60492 whole entry): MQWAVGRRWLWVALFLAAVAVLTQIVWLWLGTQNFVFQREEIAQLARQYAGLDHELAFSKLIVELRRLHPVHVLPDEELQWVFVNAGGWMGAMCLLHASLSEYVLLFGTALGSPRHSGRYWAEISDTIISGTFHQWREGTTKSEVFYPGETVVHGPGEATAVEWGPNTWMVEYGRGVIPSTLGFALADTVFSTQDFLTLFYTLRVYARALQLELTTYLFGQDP

Escherichia coli [12] = experiment: Antibacterial activity against Escherichia coli PTCC 1330 assessed as reduction in cell growth incubated for 24 hrs by Mueller-Hinton Broth micro dilution method; assay type: functional
Staphylococcus aureus [13] = experiment: Antibacterial activity against Staphylococcus aureus PTCC 1112 assessed as reduction in cell growth incubated for 24 hrs by Mueller-Hinton Broth micro dilution method; assay type: functional
Salmonella typhimurium = experiment: Antibacterial activity against Salmonella enterica subsp. enterica serovar Typhimurium PTCC 1609 assessed as reduction in cell growth incubated for 24 hrs by Mueller-Hinton Broth micro dilution method; assay type: functional
Pseudomonas aeruginosa = experiment: Antibacterial activity against Pseudomonas aeruginosa PTCC 1074 assessed as reduction in cell growth incubated for 24 hrs by Mueller-Hinton Broth micro dilution method; assay type: functional
[14] = test system: Staphylococcus epidermidis; experiment: Antibacterial activity against Staphylococcus epidermidis assessed as inhibition of bacterial growth incubated for 24 hrs by nutrient agar plate method; assay type: functional

Question: Which inhibition at 1 µg/mL (Rhizoctonia solani) does the source give for `Cn1cc(C(=O)C(C#N)c2cccc([Si](C)(C)C)c2)c(C(F)F)n1` (configuration not stated) here?
Answer: 91.2%

Question: With `Cc1cn([C@@H]2O[C@H](CO[Si](C)(C)C(C)(C)C)[C@@]3(OS(=O)(=O)C=C3N)[C@H]2O[Si](C)(C)C(C)(C)C)c(=O)[nH]c1=O` as the molecule, how does the EC50 [1] read?
Answer: 0.034 µg/mL (≈ 0.0576 µM)

Question: For `CC1(C)CC(NC(=O)[C@H](Cc2ccc(-c3ccccc3)cc2)NC(=O)c2ccc(OCC[Si](C)(C)C)cc2)CC(C)(C)N1`, which IC50 [2] is on record?
Answer: 1500 nM

Question: With `CCCCCCC[Si](C)(C)OCC[N+]1(C)CCc2ccccc2C1.[I-]` (configuration not stated) as the molecule, how does the LC50 (HT-1080 [3]) read?
Answer: < 1 µg/mL

Question: And the LC50 (MG-22A [4])?
Answer: 1 µg/mL

Question: With `CCC[Si]1(c2c(OC)cccc2OC)CCc2nc(NC(=O)NC(=O)c3cc(-n4cccn4)c(OCC)cc3Cl)sc2C1` (configuration not stated) as the molecule, how does the EC50 [5] read?
Answer: 470 nM

Question: What about the EC50 [6] of the same molecule?
Answer: 210 nM

Question: For `CCC[Si]1(CCC)CCc2nc(NC(=O)NC(=O)c3cc(N4CCOCC4)c(OCC)cc3Cl)sc2C1`, which EC50 [5] is on record?
Answer: 1200 nM

Question: And the EC50 [6]?
Answer: 1000 nM

Question: For `C[Si](CCCN1CCOCC1)(c1ccco1)c1ccco1`, which IC50 (MG-22A [7]) is on record?
Answer: 38 µg/mL (≈ 124 µM)

Question: What about the IC50 (HT-1080 [8]) of the same molecule?
Answer: 100 µg/mL (≈ 327 µM)

Question: Which results are given for `O=c1c(Cl)cn(Cc2cn(CCC[Si-]345OCC[N+]3(CCO4)CCO5)nn2)c(=O)n1Cc1cn(CCC[Si-]234OCC[N+]2(CCO3)CCO4)nn1` (configuration not stated)?
Answer: MIC50 (Bacillus subtilis): 0.18 µg/mL (≈ 0.243 µM); MIC50 (Vibrio cholerae): 0.18 µg/mL (≈ 0.243 µM); MIC50 (Escherichia coli [9]): 0.18 µg/mL (≈ 0.243 µM); MIC50 (Staphylococcus aureus [10]): 0.18 µg/mL (≈ 0.243 µM)

Question: For `CCCC[Si](C)(C)Oc1ccc(C(=O)N[C@@H](Cc2ccc(-c3ccccc3)cc2)C(=O)NC2CC(C)(C)NC(C)(C)C2)cc1`, which IC50 [2] is on record?
Answer: 1500 nM

Question: With `CC(C)(C)[Si](C)(C)OC1OC(=O)C(Br)=C1Br` (configuration not stated) as the molecule, how does the IC50 (HCT-116) read?
Answer: 1300 nM

Question: For `CCCCCC[Si](C)(CCCCCC)OCC[N+]1(C)CCc2ccccc2C1.[I-]` (configuration not stated), which LC50 (HT-1080 [3]) is on record?
Answer: < 1 µg/mL

Question: What about the LC50 (MG-22A [4]) of the same molecule?
Answer: 1 µg/mL

Question: Which EC50 [5] does the source give for `CCOc1cc(Cl)c(C(=O)NC(=O)Nc2nc3c(s2)C[Si](c2ccccc2)(c2ccccc2)CC3)cc1N1CCOCC1` here?
Answer: 1200 nM

Question: What about the EC50 [6] of the same molecule?
Answer: 1000 nM

Question: For `CCCCCCCCCCCCCCCC[Si](C)(C)OCC[N+]1(C)CCc2ccccc2C1.[I-]` (configuration not stated), which LC50 (HT-1080 [3]) is on record?
Answer: < 1 µg/mL

Question: And the LC50 (MG-22A [4])?
Answer: 1 µg/mL

Question: Which MIC50 (Bacillus subtilis) does the source give for `Cc1cc(=O)n(Cc2cn(CCC[Si-]345OCC[N+]3(CCO4)CCO5)nn2)c(=O)n1Cc1cn(CCC[Si-]234OCC[N+]2(CCO3)CCO4)nn1` (configuration not stated) here?
Answer: 0.18 µg/mL (≈ 0.25 µM)

Question: And the MIC50 (Vibrio cholerae)?
Answer: 0.18 µg/mL (≈ 0.25 µM)

Question: What about the MIC50 (Escherichia coli [9]) of the same molecule?
Answer: 0.18 µg/mL (≈ 0.25 µM)

Question: And the MIC50 (Staphylococcus aureus [10])?
Answer: 0.18 µg/mL (≈ 0.25 µM)

Question: With `c1ccc(CN2CC[Si]3(CCCc4ccccc43)CC2)cc1` as the molecule, how does the Ki [11] read?
Answer: 300 nM

Question: Which results are given for `CCCCCSc1nnn(CCCCC(=S)C(S)([Si](C)(C)C)[Si](C)(C)C)n1`?
Answer: MIC (Escherichia coli [12]): 3.91 µg/mL (≈ 8.45 µM); MIC (Staphylococcus aureus [13]): 3.91 µg/mL (≈ 8.45 µM); MIC (Salmonella typhimurium): 3.91 µg/mL (≈ 8.45 µM); MIC (Pseudomonas aeruginosa): 3.91 µg/mL (≈ 8.45 µM)

Question: For `CC(=O)Nc1ccn([C@@H]2O[C@H](CO[Si](C)(C)C(C)(C)C)[C@@]3(OS(=O)(=O)C=C3N)[C@H]2O[Si](C)(C)C(C)(C)C)c(=O)n1`, which EC50 [1] is on record?
Answer: 0.097 µg/mL (≈ 0.157 µM)

Question: Which inhibition at 1 µg/mL (Rhizoctonia solani) does the source give for `Cn1cc(C(=O)C(C#N)c2ccc([Si](C)(C)C)cc2)c(C(F)F)n1` (configuration not stated) here?
Answer: 91.2%

Question: Which MIC [14] does the source give for `CC(C)(C)[Si](c1ccccc1)(c1ccccc1)c1cccc(CN(Cc2ccccn2)Cc2ccccn2)c1O` here?
Answer: 1.2 µg/mL (≈ 2.21 µM)

Question: For `CC(C)=CCN1CC[Si]2(CCCc3ccccc32)CC1`, which Ki [11] is on record?
Answer: 300 nM

Question: With `CC1(C)CC(NC(=O)[C@H](Cc2ccc(OCc3c(Cl)cccc3Cl)cc2)NC(=O)c2ccc(OCC[Si](C)(C)C)cc2)CC(C)(C)N1` as the molecule, how does the IC50 [2] read?
Answer: 1500 nM

Question: For `CC(C)[Si](c1cccc(CN(Cc2ccccn2)Cc2ccccn2)c1O)(C(C)C)C(C)C`, which MIC [14] is on record?
Answer: 1.2 µg/mL (≈ 2.6 µM)

Question: Which results are given for `CCN(CC)CCC[Si](C)(c1ccc([Si](C)(C)C)o1)c1ccc([Si](C)(C)C)o1`?
Answer: IC50 (MG-22A [7]): 3 µg/mL (≈ 6.88 µM); IC50 (HT-1080 [8]): 3 µg/mL (≈ 6.88 µM)

Question: Which MIC [14] does the source give for `C[Si](C)(C)c1cccc(CN(Cc2ccccn2)Cc2ccccn2)c1O` here?
Answer: 1.2 µg/mL (≈ 3.18 µM)

Question: With `C[Si](C)(C)c1ccc([Si](C)(CCCN2CCOCC2)c2ccc([Si](C)(C)C)o2)o1` as the molecule, how does the IC50 (MG-22A [7]) read?
Answer: 3 µg/mL (≈ 6.67 µM)

Question: And the IC50 (HT-1080 [8])?
Answer: 3 µg/mL (≈ 6.67 µM)

Question: With `O=C1OC(O)C(Br)=C1Br` (configuration not stated) [MUCOBROMIC ACID] as the molecule, how does the IC50 (HCT-116) read?
Answer: 1300 nM

Question: For `CC(C)(C)[Si](C)(C)c1cccc(CN(Cc2ccccn2)Cc2ccccn2)c1O`, which MIC [14] is on record?
Answer: 1.2 µg/mL (≈ 2.86 µM)

Question: For `C[Si](C)(C)c1ccc([Si](C)(CCCN2CCCCC2)c2ccc([Si](C)(C)C)o2)o1`, which IC50 (MG-22A [7]) is on record?
Answer: 3 µg/mL (≈ 6.7 µM)

Question: And the IC50 (HT-1080 [8])?
Answer: 3 µg/mL (≈ 6.7 µM)

Question: What does the source list for `CC[Si](CC)(CC)c1ccc([Si](C)(CCCN2CCN(C)CC2)c2ccc([Si](CC)(CC)CC)o2)o1`?
Answer: IC50 (MG-22A [7]): 3 µg/mL (≈ 5.48 µM); IC50 (HT-1080 [8]): 3 µg/mL (≈ 5.48 µM)

Question: Which Ki [11] does the source give for `c1ccc(CCN2CC[Si]3(CCCc4ccccc43)CC2)cc1` here?
Answer: 300 nM

Question: For `CC[Si](CC)(CC)OCC[N+]1(C)CCc2ccccc2C1.[I-]` (configuration not stated), which LC50 (HT-1080 [3]) is on record?
Answer: < 1 µg/mL

Question: And the LC50 (MG-22A [4])?
Answer: 2 µg/mL
